Reference: patent US20140107109A1, “AMINO-DIHYDROTHIAZINE AND AMINO-DIOXIDO DIHYDROTHIAZINE COMPOUNDS AS BETA-SECRETASE ANTAGONISTS AND METHODS OF USE” (Amgen Inc., priority 2012, published 2014)

What was measured:
[1] = target: Beta Secretase enzyme (BACE1) (Homo sapiens, UniProt P56817); experiment: In vitro enzymatic BACE FRET assay; assay type: biochemical; conditions: average IC50, enzyme assay; read-out: BACE1 FRET assay IC50
How it was run: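 BACE1 cleavage of a 50 nM fluorophore/quencher peptide FRET substrate ran for one hour in 0.05 M acetate pH 4.2, 10% DMSO, 100 uM genapol. Tris buffer raised pH to neutrality to stop the reaction before fluorescence was read (excitation 488 nm, […]).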

[2] = test system: Aβ40 in conditioned medium of cells stably expressing Amyloid Precursor Protein (APP); experiment: In vitro BACE cell-based assay (HEK cell assay), Aβ40 sandwich ELISA; conditions: Homo sapiens, HEK293; average IC50, HEK cell assay
How it was run: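 APP-stably expressing cells (40K/well, grown 24 h in DMEM/10% FBS) were treated 24 h with compounds in 10-point dose response starting at 100 μM or 10 μM, 0.1% DMSO final. Secreted Aβ40 was measured by sandwich ELISA (pAb40 capture, biotinylated 6E10 detection, europium time-resolved fluorescence); IC50 from percent inhibition.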

[3] = target: T1, Cathepsin D (Cat D) (Homo sapiens, UniProt P07339); experiment: In vitro enzymatic Cathepsin D (Cat D) FRET assay; assay type: biochemical; conditions: read-out: CatD IC50
T1 construct: Recombinant Cat D was expressed in CHO cells; made in house; host or cells: CHO cells
T1 sequence (P07339 65-412, species assumed): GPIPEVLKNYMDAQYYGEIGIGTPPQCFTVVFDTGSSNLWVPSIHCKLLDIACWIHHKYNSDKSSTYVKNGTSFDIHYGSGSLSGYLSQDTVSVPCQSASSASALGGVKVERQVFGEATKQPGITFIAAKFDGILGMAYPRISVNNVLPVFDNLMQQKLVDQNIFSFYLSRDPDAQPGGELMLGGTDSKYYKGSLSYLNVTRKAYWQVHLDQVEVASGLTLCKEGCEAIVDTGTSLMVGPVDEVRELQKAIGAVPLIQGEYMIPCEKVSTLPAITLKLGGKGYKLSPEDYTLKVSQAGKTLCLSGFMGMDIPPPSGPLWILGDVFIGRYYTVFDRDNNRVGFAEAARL
How it was run: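 Recombinant Cat D expressed in CHO cells, used at 9 nM and pre-incubated one hour with serially diluted inhibitor in DMSO. Peptide substrate carries a fluorophore and quencher flanking the cleavage site; reaction stopped with Tris buffer raising pH to neutrality, then fluorescence read.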

Chain of Beta Secretase enzyme (BACE1) (P56817 46-501): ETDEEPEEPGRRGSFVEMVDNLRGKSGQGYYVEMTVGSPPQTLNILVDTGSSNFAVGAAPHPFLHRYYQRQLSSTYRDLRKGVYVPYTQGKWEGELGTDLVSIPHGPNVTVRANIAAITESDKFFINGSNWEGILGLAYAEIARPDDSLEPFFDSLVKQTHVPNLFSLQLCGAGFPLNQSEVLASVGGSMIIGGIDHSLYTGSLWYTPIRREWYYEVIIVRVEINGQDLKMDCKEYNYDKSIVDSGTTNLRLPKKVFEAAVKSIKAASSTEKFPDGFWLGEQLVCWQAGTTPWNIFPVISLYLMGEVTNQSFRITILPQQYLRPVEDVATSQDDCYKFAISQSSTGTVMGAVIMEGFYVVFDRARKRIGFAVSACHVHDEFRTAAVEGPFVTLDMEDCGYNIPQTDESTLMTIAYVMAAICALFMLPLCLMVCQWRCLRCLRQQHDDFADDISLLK

SMILES | IC50 [1] [nM] | IC50 [2] [nM] | IC50 [3] [nM]
CC#CCOc1cnc(C(=O)Nc2ccc(F)c([C@@]3(C)N=C(N)C(C)(C)S(=O)(=O)C3F)c2)cn1 (stereo partly drawn) [Example 332, N-(3-((3R)-5-amino-2-fluoro-3,6,6-trimethyl-1,1-dioxido-3,6-dihydro-2H-1,4-thiazin-3-yl)-4-fluorophenyl)-5-(2-butyn-1-yloxy)-2-pyrazinecarboxamide] | 0.23 | 1 | 44900
CC1(C)C(N)=N[C@](C)(c2cc(NC(=O)c3cnc(OCC(F)(F)F)cn3)ccc2F)C(F)S1(=O)=O (stereo partly drawn) [Example 333, N-(3-((3R)-5-amino-2-fluoro-3,6,6-trimethyl-1,1-dioxido-3,6-dihydro-2H-1,4-thiazin-3-yl)-4-fluorophenyl)-5-(2,2,2-trifluoroethoxy)-2-pyrazinecarboxamide] | 1.5 | 16 | 190000
CC1(C)C(N)=N[C@](C)(c2cc(NC(=O)c3ccc(C(F)F)cn3)ccc2F)C(F)S1(=O)=O (stereo partly drawn) [Example 334, N-(3-((3R)-5-amino-2-fluoro-3,6,6-trimethyl-1,1-dioxido-3,6-dihydro-2H-1,4-thiazin-3-yl)-4-fluorophenyl)-5-(difluoromethyl)-2-pyridinecarboxamide] | 2.4 | 5.5 | 307000
COCc1cc(Cl)cnc1C(=O)Nc1ccc(F)c([C@@]2(C)N=C(N)C(C)(C)S(=O)(=O)C2F)c1 (stereo partly drawn) [Example 335, N-(3-((3R)-5-amino-2-fluoro-3,6,6-trimethyl-1,1-dioxido-3,6-dihydro-2H-1,4-thiazin-3-yl)-4-fluorophenyl)-5-chloro-3-(methoxymethyl)-2-pyridinecarboxamide] | 0.56 | 6.8 | 311000

Other lines, results leading:

IC50 [1] [nM] | IC50 [2] [nM] | IC50 [3] [nM] | SMILES
1.4 | 5.3 | 533000 | COc1cnc(C(=O)Nc2ccc(F)c([C@@]3(C)N=C(N)C(C)(C)S(=O)(=O)C3F)c2)c(Cl)c1 (stereo partly drawn) [Example 336, N-(3-((3R)-5-amino-2-fluoro-3,6,6-trimethyl-1,1-dioxido-3,6-dihydro-2H-1,4-thiazin-3-yl)-4-fluorophenyl)-3-chloro-5-methoxy-2-pyridinecarboxamide]
3.13 | 9.7 | 233000 | COc1cnc(C(=O)Nc2ccc(F)c([C@@]3(C)N=C(N)C(C)(C)S(=O)(=O)C3F)c2)c(C)c1 (stereo partly drawn) [Example 337, N-(3-((3R)-5-amino-2-fluoro-3,6,6-trimethyl-1,1-dioxido-3,6-dihydro-2H-1,4-thiazin-3-yl)-4-fluorophenyl)-5-methoxy-3-methyl-2-pyridinecarboxamide]
18.1 | 196 | 109000 | CC1[C@@](C)(c2cc(NC(=O)c3ccc(Cl)cn3)ccc2F)N=C(N)[C@](C)(F)S1(=O)=O (stereo partly drawn) [Example 339, N-(3-((3R,6R)-5-amino-6-fluoro-2,3,6-trimethyl-1,1-dioxido-3,6-dihydro-2H-1,4-thiazin-3-yl)-4-fluorophenyl)-5-chloro-2-pyridinecarboxamide]
5.1 | 4.4 | 20000 | Cc1cc(Cl)cnc1C(=O)Nc1ccc(F)c([C@@]2(C)N=C(N)C(C)(C)S(=O)(=O)C23CC3)c1 [Example 340, N-(3-((8R)-6-amino-5,5,8-trimethyl-4,4-dioxido-4-thia-7-azaspiro[2.5]oct-6-en-8-yl)-4-fluorophenyl)-5-chloro-3-methyl-2-pyridinecarboxamide]
5.99 | 2.4 | 9400 | Cc1cc(OC(F)F)cnc1C(=O)Nc1ccc(F)c([C@@]2(C)N=C(N)C(C)(C)S(=O)(=O)C23CC3)c1 [Example 341, N-(3-((8R)-6-amino-5,5,8-trimethyl-4,4-dioxido-4-thia-7-azaspiro[2.5]oct-6-en-8-yl)-4-fluorophenyl)-5-(difluoromethoxy)-3-methyl-2-pyridinecarboxamide]
